Calls of active or inactive are those of the source.
Columns and labels:
Cytochrome P450 3A4 = Cytochrome P450 3A4 (Homo sapiens, UniProt P08684); conditions: Potency;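 also: confirmatory qHTS run detecting inhibitors and substrates of CYP3A4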
Cytochrome P450 2C9 = Cytochrome P450 2C9 (Homo sapiens, UniProt P11712); conditions: Potency
SUMO-activating enzyme [1] = molecular target: T1, SUMO-activating enzyme (Homo sapiens, UniProt Q9UBT2); test: SUMOylation inhibitor hit validation, confirmation, SUMOylation inhibitor project, biochemical, AlphaScreen (AID 2018); type: functional
T1 sequence (Q9UBE0 whole entry): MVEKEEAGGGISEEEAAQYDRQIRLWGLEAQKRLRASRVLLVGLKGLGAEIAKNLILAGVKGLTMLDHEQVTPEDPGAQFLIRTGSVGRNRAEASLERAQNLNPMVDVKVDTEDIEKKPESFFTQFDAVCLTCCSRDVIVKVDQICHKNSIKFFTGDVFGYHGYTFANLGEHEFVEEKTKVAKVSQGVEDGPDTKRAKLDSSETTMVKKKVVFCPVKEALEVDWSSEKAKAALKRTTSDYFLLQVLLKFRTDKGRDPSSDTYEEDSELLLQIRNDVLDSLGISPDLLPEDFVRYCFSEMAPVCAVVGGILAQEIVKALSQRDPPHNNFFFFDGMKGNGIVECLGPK
T1 sequence (Q9UBT2 whole entry): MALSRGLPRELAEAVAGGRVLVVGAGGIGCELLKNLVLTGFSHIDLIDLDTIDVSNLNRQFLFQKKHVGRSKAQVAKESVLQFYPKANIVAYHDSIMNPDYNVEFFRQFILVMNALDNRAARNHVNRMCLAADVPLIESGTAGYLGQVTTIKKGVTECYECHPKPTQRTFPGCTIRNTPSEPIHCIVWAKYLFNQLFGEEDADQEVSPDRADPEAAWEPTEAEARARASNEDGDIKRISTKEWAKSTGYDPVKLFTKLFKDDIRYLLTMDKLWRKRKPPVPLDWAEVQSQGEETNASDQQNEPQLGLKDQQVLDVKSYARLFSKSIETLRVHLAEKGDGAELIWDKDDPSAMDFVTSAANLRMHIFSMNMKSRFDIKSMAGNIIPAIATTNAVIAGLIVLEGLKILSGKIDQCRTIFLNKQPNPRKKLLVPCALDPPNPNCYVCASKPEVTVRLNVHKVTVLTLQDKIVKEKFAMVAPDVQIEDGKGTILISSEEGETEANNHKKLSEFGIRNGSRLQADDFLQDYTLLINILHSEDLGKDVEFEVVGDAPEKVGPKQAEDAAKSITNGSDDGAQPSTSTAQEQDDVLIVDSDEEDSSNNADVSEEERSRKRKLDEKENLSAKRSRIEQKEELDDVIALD

[2] = molecular target: T2, Endoribonuclease toxin MazF (Escherichia coli K-12, UniProt P0AE70); test: fluorescent RNA oligo signal without MazF, dose response, counter-screen for MazEF activator project, biochemical, fluorescence, single-stranded RNase substrate (AID 588502); type: functional
T2 sequence (P0AE70 whole entry): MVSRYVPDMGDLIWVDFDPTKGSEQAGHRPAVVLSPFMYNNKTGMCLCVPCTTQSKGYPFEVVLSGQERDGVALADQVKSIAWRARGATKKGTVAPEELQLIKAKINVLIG

SUMO-activating enzyme [3] = molecular target: T1, SUMO-activating enzyme; test: inhibitors of in vitro SUMOylation cascade, primary screen, biochemical, HTRF, uHTS (AID 2006); type: protein-complex assay
[4] = molecular target: T2, Endoribonuclease toxin MazF; test: MazF toxin RNase activators, dose response, biochemical, fluorescence, single-stranded RNA substrate, uHTS hits (AID 588481); type: functional
X-box-binding protein 1 = X-box-binding protein 1 (Homo sapiens, UniProt P17861); type: functional, Cricetulus griseus;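 also: confirmatory dose-response counter-screen serving a CHOP assay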
Chain of X-box-binding protein 1 (P17861 whole entry): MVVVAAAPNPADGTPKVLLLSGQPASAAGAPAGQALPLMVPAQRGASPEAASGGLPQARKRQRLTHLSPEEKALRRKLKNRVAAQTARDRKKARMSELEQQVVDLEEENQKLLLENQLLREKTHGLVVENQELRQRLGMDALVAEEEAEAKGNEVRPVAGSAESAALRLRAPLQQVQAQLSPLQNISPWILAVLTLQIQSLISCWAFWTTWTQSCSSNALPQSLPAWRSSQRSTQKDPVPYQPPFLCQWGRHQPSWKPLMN

Estrogen receptor beta = Estrogen receptor beta (Homo sapiens, UniProt Q92731); test: ERβ–SRC-3 coactivator interaction inhibitors, confirmation, orthogonal assay, biochemical, ELISA, streptavidin-HRP readout (AID 1060)
Chain of Estrogen receptor beta (Q92731 whole entry): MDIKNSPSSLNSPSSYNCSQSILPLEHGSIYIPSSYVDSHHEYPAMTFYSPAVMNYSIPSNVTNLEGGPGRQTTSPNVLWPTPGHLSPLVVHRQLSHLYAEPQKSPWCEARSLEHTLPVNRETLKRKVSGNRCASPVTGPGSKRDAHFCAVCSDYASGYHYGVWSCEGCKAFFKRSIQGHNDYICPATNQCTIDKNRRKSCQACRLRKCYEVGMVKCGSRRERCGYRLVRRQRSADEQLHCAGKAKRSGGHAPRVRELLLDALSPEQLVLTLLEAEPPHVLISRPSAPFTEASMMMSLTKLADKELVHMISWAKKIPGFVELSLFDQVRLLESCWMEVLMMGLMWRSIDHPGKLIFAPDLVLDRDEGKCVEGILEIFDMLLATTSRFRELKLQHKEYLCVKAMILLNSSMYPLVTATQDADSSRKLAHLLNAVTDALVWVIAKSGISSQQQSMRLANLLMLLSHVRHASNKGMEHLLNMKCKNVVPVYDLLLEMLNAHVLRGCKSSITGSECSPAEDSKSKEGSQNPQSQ

Protein Tat = molecular target: T3, Protein Tat (Human immunodeficiency virus type 1 group M subtype B (isolate HXB2)(HIV-1), UniProt P04608); type: functional;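 also: tat binding to TAR RNA read out by fluorescence polarization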
T3 sequence (P04608 whole entry): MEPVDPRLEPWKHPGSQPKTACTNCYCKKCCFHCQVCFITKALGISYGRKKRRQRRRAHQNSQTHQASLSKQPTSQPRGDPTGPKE

Bcl-2-like protein 10 = molecular target: T4, Bcl-2-like protein 10 (Homo sapiens, UniProt Q9HD36); test: displacers of TR3 peptide from Bcl-B, primary screen, selectivity assay for Bfl-1 inhibitor project, biochemical, fluorescence polarization, FITC-TR3 peptide (AID 748);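 also: fluorescence polarization from a fluorescein-labelled TR3 peptide binding purified Bcl-B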
T4 sequence (Q9HD36 whole entry): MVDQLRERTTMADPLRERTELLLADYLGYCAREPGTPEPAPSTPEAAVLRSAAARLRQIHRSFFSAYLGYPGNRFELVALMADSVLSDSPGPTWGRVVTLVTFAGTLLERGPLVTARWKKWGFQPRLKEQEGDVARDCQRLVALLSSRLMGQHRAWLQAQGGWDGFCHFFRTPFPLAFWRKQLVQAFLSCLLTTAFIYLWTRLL

[5] = molecular target: T5, Glutathione-S-transferase (Schistosoma japonicum, UniProt Q26513); test: biotin-GST/anti-GST TR-FRET signal inhibitors, dose response, artefact control for Vif-APOBEC3G degradation inhibitor project, biochemical (AID 1117362); type: functional
T5 sequence (Q26513 whole entry): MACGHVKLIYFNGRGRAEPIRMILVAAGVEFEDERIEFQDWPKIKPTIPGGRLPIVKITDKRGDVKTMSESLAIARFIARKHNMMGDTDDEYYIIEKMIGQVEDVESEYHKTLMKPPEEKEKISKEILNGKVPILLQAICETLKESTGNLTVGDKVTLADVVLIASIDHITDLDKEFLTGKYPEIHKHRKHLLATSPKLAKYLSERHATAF

[6] = THP-1 cell cytotoxicity, dose response, cytotoxicity control for Vif-APOBEC3G degradation inhibitor project, THP-1 cells (AID 1117359); type: functional; conditions: Human immunodeficiency virus 1, THP-1
[7] = Shn3 3'UTR reporter inhibitors, dose response, cell-based, Clone20 osteoblasts, firefly luciferase, cherry-picked (AID 624132); type: functional;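 also: firefly luciferase luminescence from reporter carrying the Shn3 3'UTR in osteoblasts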
INS1 = test: beta cell apoptosis inhibitors, cytokine rescue, dose response, luminescence, retest (AID 449756); type: functional, cell-based; conditions: Rattus norvegicus;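 also: cell death triggered by IL-1 beta plus TNF-alpha plus IFN-gamma mixture; protective hits raise ATP signal compared with cytokine alone wells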
cells = type: functional, cell-based; conditions: HEK-CNG
[8] = cytotoxicity in HEK-293T cells, dose response, cytotoxicity control for BCR NF-kB inhibitor project, luminescence, B-cell screen hits (AID 489021); type: functional, cell-based;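 also: HEK-293T cells carrying an NF-kB luciferase reporter; cells exposed to compound for about 14 hours before viability readout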
Galanin receptor type 3 = molecular target: T6, Galanin receptor type 3 (Homo sapiens, UniProt O60755); test: Fluorescence-based cell-based primary high throughput dose response assay to identify antagonists of the Galanin Receptor 3 (GalR3).; type: functional
T6 sequence (O60755 whole entry): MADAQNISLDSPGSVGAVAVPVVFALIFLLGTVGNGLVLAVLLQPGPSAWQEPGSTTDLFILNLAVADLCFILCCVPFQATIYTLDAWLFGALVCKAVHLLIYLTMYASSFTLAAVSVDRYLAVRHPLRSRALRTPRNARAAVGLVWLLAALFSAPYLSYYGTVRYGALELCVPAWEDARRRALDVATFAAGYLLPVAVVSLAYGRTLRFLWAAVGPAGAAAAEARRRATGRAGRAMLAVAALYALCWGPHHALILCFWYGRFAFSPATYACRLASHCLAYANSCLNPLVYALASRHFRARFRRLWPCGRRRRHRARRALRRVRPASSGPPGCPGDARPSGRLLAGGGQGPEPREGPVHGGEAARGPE

[9] = HepG2 cell cytotoxicity, dose response, cytotoxicity control for Shn3 inhibitor project, CellTiter-Glo, cherry-picked (AID 624134); type: functional, cell-based
[10] = control 3'UTR Renilla luciferase suppression, dose response, counter-screen for Shn3 inhibitor project, cell-based, Clone20-Shn3RL, cherry-picked (AID 624133); type: functional
Beta-galactosidase = Beta-galactosidase (Escherichia coli, UniProt Q8VNN2); type: functional
Chain of Beta-galactosidase (Q8VNN2 whole entry): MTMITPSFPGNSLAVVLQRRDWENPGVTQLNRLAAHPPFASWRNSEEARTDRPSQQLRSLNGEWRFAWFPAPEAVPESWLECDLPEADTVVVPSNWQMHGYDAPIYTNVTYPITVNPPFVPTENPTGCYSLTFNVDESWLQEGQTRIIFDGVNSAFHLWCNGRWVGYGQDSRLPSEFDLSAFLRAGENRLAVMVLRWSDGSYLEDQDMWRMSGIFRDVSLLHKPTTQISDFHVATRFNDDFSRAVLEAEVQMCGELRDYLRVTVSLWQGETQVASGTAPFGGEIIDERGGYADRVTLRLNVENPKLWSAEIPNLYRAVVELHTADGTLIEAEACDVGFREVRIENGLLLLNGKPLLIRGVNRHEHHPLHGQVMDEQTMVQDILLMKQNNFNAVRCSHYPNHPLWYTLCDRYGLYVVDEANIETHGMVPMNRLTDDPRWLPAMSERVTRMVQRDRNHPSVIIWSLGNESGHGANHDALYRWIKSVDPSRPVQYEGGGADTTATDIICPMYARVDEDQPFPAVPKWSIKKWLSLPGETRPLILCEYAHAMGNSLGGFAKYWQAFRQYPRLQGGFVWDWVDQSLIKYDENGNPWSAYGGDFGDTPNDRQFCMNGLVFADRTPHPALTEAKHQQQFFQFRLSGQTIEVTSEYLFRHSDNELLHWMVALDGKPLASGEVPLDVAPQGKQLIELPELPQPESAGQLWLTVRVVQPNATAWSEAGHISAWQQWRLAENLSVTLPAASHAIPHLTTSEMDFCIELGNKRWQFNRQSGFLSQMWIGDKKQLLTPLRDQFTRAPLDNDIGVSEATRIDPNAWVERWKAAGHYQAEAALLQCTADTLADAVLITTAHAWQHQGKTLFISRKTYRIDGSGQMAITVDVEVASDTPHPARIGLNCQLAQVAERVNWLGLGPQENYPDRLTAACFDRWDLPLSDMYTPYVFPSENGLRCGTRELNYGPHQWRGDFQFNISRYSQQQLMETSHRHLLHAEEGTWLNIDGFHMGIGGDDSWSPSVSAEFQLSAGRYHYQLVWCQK

Chain of Cytochrome P450 3A4 (P08684 whole entry): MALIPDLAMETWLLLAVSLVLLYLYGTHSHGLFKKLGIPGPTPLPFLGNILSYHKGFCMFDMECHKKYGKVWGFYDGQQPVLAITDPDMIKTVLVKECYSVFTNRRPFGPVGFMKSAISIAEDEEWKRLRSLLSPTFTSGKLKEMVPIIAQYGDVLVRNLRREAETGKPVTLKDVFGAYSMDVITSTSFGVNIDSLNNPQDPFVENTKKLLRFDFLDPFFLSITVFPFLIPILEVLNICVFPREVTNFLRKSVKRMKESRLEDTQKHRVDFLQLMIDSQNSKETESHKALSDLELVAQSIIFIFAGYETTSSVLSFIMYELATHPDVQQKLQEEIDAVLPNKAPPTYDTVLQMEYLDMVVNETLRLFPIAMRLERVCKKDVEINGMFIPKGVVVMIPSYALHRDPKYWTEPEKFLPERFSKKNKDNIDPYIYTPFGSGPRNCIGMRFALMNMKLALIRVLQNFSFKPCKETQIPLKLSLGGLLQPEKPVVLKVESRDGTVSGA
Chain of Cytochrome P450 2C9 (P11712 whole entry): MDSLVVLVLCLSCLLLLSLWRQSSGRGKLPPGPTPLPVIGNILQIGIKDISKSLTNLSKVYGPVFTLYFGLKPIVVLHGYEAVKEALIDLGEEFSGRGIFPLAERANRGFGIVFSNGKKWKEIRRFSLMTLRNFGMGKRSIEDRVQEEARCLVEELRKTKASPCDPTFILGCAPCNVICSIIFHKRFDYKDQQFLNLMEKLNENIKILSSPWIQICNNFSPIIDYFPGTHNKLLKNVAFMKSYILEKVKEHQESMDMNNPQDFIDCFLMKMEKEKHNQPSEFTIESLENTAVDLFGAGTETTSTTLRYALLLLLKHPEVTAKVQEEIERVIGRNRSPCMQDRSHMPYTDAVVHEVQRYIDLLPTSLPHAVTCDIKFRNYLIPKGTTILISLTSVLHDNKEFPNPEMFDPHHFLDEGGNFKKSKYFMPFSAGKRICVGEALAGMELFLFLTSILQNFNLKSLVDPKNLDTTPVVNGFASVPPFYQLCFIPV

In the case of CC1CCC2C(=O)N3C(CCC(C)[C@H]3c3cccc(N4CCCC4=O)c3)C(=O)N2C1c1cccc(N2CCCC2=O)c1 (stereo partly specified), the AC50 (Cytochrome P450 3A4) is reported as 2.51 µM (inconclusive) and the AC50 (Cytochrome P450 2C9) is reported as 2.51 µM (inconclusive).
For O=C1NC(=O)C(=Cc2c[nH]c3ccc(OCc4ccccc4)cc23)C(=O)N1, the IC50 (SUMO-activating enzyme [1]) was 20.9 µM (active), the EC50 [2] was > 99 µM (inactive) and the IC50 (SUMO-activating enzyme [3]) was 11 µM (active). The EC50 [4] was > 99 µM (inactive).
For CCOC(=O)c1c(C)[nH]c(C(=O)COC(=O)c2[nH]c(C)c(C(C)=O)c2C)c1C, the “Absolute IC50 (XBP1)” value (X-box-binding protein 1) was 10 µM.
In the case of CN(C)c1ccc(NC(=O)Cn2cc3c(n2)CCCC3)cc1, the IC50 (Estrogen receptor beta) is reported as 0.326 µM (not active), the IC50 (Protein Tat) is reported as > 100 µM (inconclusive) and the IC50 (Bcl-2-like protein 10) is reported as 21.8 µM (active). The IC50 [5] was 22.1 µM (active) and the CC50 [6] was 22.2 µM (active).
For CN(C)c1ccc(NC(=O)CN2C(=O)CC(c3ccccc3)=Nc3ccccc32)cc1, the IC50 (Bcl-2-like protein 10) was > 100 µM (inactive).
In the case of CC(C)(C)c1ccc(-n2ncc3c2CCCC3NC(=O)C2(C(N)=O)CC2)cc1 (stereo unspecified), the AC50 [7] is reported as 0.589 µM (active), the AC50 (INS1) is reported as 4.11 µM (active) and the EC50 (cells) is reported as > 29.9 µM (inactive). For the same compound, the IC50 [8] was > 80 µM (inactive), the IC50 (Galanin receptor type 3) was 0.408 µM (active) and the AC50 [9] was 0.807 µM (active). The AC50 [10] was 13.4 µM (active).
For C=C1CC[C@@]2(O)[C@H]3Cc4ccc(O)c5c4[C@@]2(CCN3CC2CC2)[C@H]1O5, the EC50 (Beta-galactosidase) was > 31.5 µM (inactive).

From ChEMBL document CHEMBL1201862, “PubChem BioAssay data set” (2004)
